Experimental data as given in patent publication US20080221205A1, “FURAN DERIVATIVES FOR PREVENTING AND CURING OSTEOPOROSIS AND PHARMACEUTICAL COMPOSITIONS CONTAINING THE SAME” (priority 2002, published 2008).
“Also recorded” adds a separate entry of the source.

Key:
[1] = system: osteoclast progenitor cells; assay: Formation of TRAP-positive multinucleated cells from osteoclast progenitors; assay type: cell-based, mice; conditions: concentration not given, control 132
Protocol: In order to investigate the effects of the Compound 1 on differentiation and activity of osteoclasts, when differentiation of osteoclast progenitors was induced, the activity of Tartrate-resistant acid phosphatase (TRAP) as an osteoclastic marker enzyme was investigated, and, when differentiated osteoclasts were cultured on calcium phosphate-coated plates (OAAS, OCT Inc.), resorption activity (formation of resorption pits) were measured.
First, bone marrow cells were isolated, as follow. After sacrificing 7-9 week female mice by cervical dislocation, femur and tibia were excised aseptically while removing attached soft tissues. After cutting both ends of long bones, 1 ml of an enzyme solution, containing 0.1% collagenase (Gibco), 0.05% trypsin and 0.5 mM EDTA (Gibco), was injected to the bone marrow cavity at one end using a syringe with a 26-guage needle, and bone marrow was then collected. After shaking the recovered bone marrow for 30 min, bone marrow cells were collected, and cultured in α-minimum essential medium (α-MEM) supplemented with 10% FBS for 24 hrs. […]
Osteoclasts are derived from hematopoietic cells belonging to the monocyte/macrophage lineage originating in bone marrow. […] The formed TRAP-positive multinucleated cells containing three or more nuclei were counted as osteoclasts, and the counted cell number was compared to that of a control not treated with the Compound 1.

osteoclast formation = assay: Inhibition rate of furan derivatives versus osteoclast formation (TRAP staining); assay type: cell-based, mice; conditions: TRAP-positive multinucleated cells, untreated control set as 100%
Protocol: First, bone marrow cells were isolated, as follow. After sacrificing 7-9 week female mice by cervical dislocation, femur and tibia were excised aseptically while removing attached soft tissues. After cutting both ends of long bones, 1 ml of an enzyme solution, containing 0.1% collagenase (Gibco), 0.05% trypsin and 0.5 mM EDTA (Gibco), was injected to the bone marrow cavity at one end using a syringe with a 26-guage needle, and bone marrow was then collected. After shaking the recovered bone marrow for 30 min, bone marrow cells were collected, and cultured in α-minimum essential medium (α-MEM) supplemented with 10% FBS for 24 hrs. Then, non-adherent cells were collected, which are osteoclast pregenitors, aliquotted onto culture plates at a density of 2×10^5 cells per well, and cultured for 8 days in α-MEM supplemented with 20 ng/ml of macrophage-colony stimulating factor (M-CSF, Peprotech, USA) and 30 ng/ml RANKL (Peprotech, USA). During the 8 days of culturing, the cells were treated with the Compound 1. Thereafter, osteoclast formation was investigated by fixing the cultured cells and then carrying out TRAP staining, as described in the following Experimental Example 2.2. In addition, resorption activity of osteoclasts was investigated by measuring the absorption area after removing osteoclasts in cultures in calcium phosphate-coated plates, as described in Experimental Example 2.3, below.
After cell culture, the adherent cells were washed with PBS, and TRAP staining was performed, as follows. After being fixed with citrate-acetate-formaldehyde for 5 min, the cells were incubated for 1 hr in acetate buffer (prewarmed at 37° C., pH 5.0) containing naphthol AS-BI phosphate, fast Garnet GBC and 7 mM tartrate buffer (pH 5.0). TRAP-positive multinucleated cells having 3 or more nuclei were considered as osteoclasts.
Osteoclast pregenitor cells were isolated, and their differentiation to mature osteoclasts was induced, according to the same method as in the Experimental Example 2-1, while treated with each of the furan derivatives of the present invention. According to the same method as in the Experimental Example 2-2, TRAP staining performed, and TRAP-positive multinucleated cells were counted. An inhibition rate of each furan derivative against osteoclast formation was expressed as percentage, wherein the number of stained cells in a control not treated the furan derivative was arbitrarily set as 100% (Tables 14 to 16).

[2] = system: ovariectomized white mice; assay: Therapeutic effect on osteoporosis: tibia histology, oral administration from four weeks after ovariectomy; assay type: in vivo; conditions: four weeks to develop osteoporosis, then oral 220 μl/day for four weeks, versus control
Protocol: In order to evaluate effects of the compound of the present invention on treatment and prevention of osteoporosis, female white mice with osteoporosis induced by ovariectomy were used as a disease model. After ovariectomy, mice were administered with the compound of the present invention. Tibias were dissected from the mice, and observed histologically.
After anesthetizing female white mice with 100 mg/kg of Ketamine (Ketara) and 0.15 ml/kg of 2% Xylazine (Rompun), the lumbar dorsum is shaved bilaterally and the exposed skin was prepared for aseptic surgery by a 10% povidone-iodine scrub followed by a 70% alcohol wipe.
A 1-cm incision was made in the central region of the abdomen, and the ovary was identified along with the uterus with caution not to damage the main organs such as the liver and diaphragm. After ligating the uterus with a thread for suturing, the exposed ovary was severed toward both sides and removed. Thereafter, each organ was relocated to its original position, and the incision was closed with a thread for suturing in an interrupted pattern. After ovariectomy, the mice were injected with 50 mg/kg of cefazolin antibiotic for prevention of infection with pathogens.
In order to evaluate therapeutic effect of the Compound 1 on osteoporosis, after ovariectomy, the mice were fed with solid feedstuff for four weeks. […]

In the case of `O=Cc1ccc(CO)o1` [Compound 1, 5-hydroxymethylfuran-2-carboxyaldehyde], the “Number of TRAP-positive multinucleated cells” value [1] was 77, the “Number of TRAP-positive multinucleated cells” value ([1]; listed as compound prepared in Example 1) was “remarkably reduced” and the “Inhibition rate against osteoclast formation, %” value (“Inhibition rate … %” below) (osteoclast formation; 0.1 μM) was 0%. The “Inhibition rate … %” value (osteoclast formation; 1 μM) was 0%, the “Inhibition rate … %” value (osteoclast formation; 10 μM) was 30% and the “Trabecular bone density of tibia, light microscopy” value [2] was “just a slight decrease in trabecular bone density; also recorded: no trabecular bone loss”.
